The first test concerns the target T1, human α7 nAChR (Homo sapiens, UniProt P36544).
T1 construct: expressed in transfected cells; host or cells: GH4C1 cells derived from rat pituitary (ATCC CCL-82.2)
As to the kind of experiment: Evaluation of PAM activity with human α7 nACh receptor stably expressing cells (aequorin luminescence, FDSS7000). Type of test: cell-based. Conditions: result in words; ratio of RLU (Max-Min) to control wells, ACh EC20. The source says:
Human α7 nAChR stably expressing cells were generated and cultured. In detail, GH4C1 cells derived from rat pituitary (cat#CCL-82.2, ATCC, USA) were used as a host cell. PcDNA3.1Zeo vector containing a nucleotide sequence encoding a protein GenBank BAC81731 and pcDNA3.1 vector containing human α7 nAChR gene (cat#V790-20, invitrogen, Carlsbad, Calif., USA) were transfected to the cells to give aequorins and human α7 nAChR stably expressing cells respectively. The aequorins and human α7 nAChR stably expressing cells were screened with Zeocin (cat#R25001, invitrogen, Carlsbad, Calif., USA) and Geneticin (cat #10131-027, invitrogen, Carlsbad, Calif., USA) respectively.
The cells were cultured in F-10 Nutrient Mixture (Ham) medium (cat #11550-043, invitrogen, Carlsbad, Calif., USA) containing 2.5% fetal bovine serum (cat #2917354, ICN Biomedicals, Inc, USA), 15% inactivated horse serum (cat #26050-088, invitrogen, Carlsbad, Calif., USA), 1 μg/mL Geneticin, and 5 μg/mL Puromycin (cat #14861-84, invitrogen, Carlsbad, Calif., USA), in a Collagen Type 1-coated dish (cat #4030-010, iwaki, Tokyo, Japan). During the culture, the medium was replaced with fresh medium in every 2 to 3 days, and the cells were treated with TrypLE Express (cat #45604-021, invitrogen, Carlsbad, Calif., USA) to collect them in every 7 days. Thus, the cells were subcultured.
7 Days after subculturing, the cells were treated with TrypLE Express to collect them when they were about 80% confluent. The cells were suspended in a reaction medium containing Hanks (cat #14065-056, invitrogen, Carlsbad, Calif., USA)/20 mmol/L Hepes (cat #15630-080, invitrogen, Carlsbad, Calif., USA), Buffer (pH 7.4), F-10 Nutrient Mixture (Ham), and 0.1 mg/mL Geneticin, and the suspension was seeded in a 384-well plate (cat #781090, Greiner, Germany) at 20000 cells/25 μL per well.
On the next day after seeding, Viviren (cat#E649X, Promega, Madison, Wis., USA) was added to the medium so that the final concentration could be 4 μmol/L (15 μL/well). The plates were centrifuged and then placed in the dark for 4 hours at room temperature.
Each of the test compounds was dissolved in DMSO to prepare each test sample at a concentration of 1000-fold the final concentration. To the solution was added Hanks/20 mM HEPES/0.2% BSA (cat#A3803, Sigma, St. Louis, Mo., USA), and the concentration was adjusted to 6-fold the final concentration.
FDSS7000 (Hamamatsu Photonics) was used to detect the luminescence signal evoked by α7 nAChR stimulation. The cells and a luminescent substrate were put on a plate, and the test sample was added thereto. […] After the addition of ACh, the luminescence signal (the central wavelength: 465 nm) was measured for 138 seconds to calculate RLU (Max-Min). The ratio of the RLU (Max-Min) of the test-compound-containing wells to that of the control wells was defined as PAM activity.
T1 sequence (P36544 23-502): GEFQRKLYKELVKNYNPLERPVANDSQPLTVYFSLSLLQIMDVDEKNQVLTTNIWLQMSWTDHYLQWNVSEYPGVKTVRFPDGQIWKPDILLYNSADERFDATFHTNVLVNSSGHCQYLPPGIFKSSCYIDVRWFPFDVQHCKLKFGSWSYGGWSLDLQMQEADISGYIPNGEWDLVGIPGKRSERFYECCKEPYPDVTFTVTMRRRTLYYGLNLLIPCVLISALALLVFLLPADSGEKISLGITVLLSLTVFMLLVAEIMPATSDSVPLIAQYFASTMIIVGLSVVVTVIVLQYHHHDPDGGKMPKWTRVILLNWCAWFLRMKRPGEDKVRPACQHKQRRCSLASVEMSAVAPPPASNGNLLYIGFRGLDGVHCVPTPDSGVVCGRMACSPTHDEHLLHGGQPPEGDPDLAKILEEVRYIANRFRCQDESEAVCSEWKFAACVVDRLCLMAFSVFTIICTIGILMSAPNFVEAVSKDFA
As for `Cc1ccc2c(cnn2C2CCN(C(=O)NC3CCC(F)(F)CC3)CC2)c1` [Example 13, N-(4,4-difluorocyclohexyl)-4-(5-methyl-1H-indazol-1-yl)piperidine-1-carboxamide], the “PAM activity for α7 nAChR” value is given as “stronger PAM activity than others”.

The same test, now with this note: test compound 10 μmol/L; ACh added at EC20; ratio of RLU (Max-Min) of test wells to control wells.
`CCc1ccc2c(cnn2C2CCCN(C(=O)NC3CCC(F)(F)CC3)CC2)c1` (centres unmarked) [Example 73]: the “α7PAM (%) @ 10 μmol/L” value was 453%. On the same count and under the same terms, the same measure for `COc1c(C2CC2)ccc2c1cnn2C1CCN(C(=O)NC2CCOCC2)CC1` [Example 303]: 1058%. As for `Cc1ccc2c(cnn2C2CCN(C(=O)NC3CCC(F)(F)CC3)CC2)c1F` [Example 222], the “α7PAM (%) @ 10 μmol/L” value is listed as 638%. The same measure, in the same setting: then `COC1CCC(NC(=O)N2CCC(n3ncc4cc(OC(C)C)ccc43)CC2)CC1` (centres unmarked) [Example 47], with 375%. Turning to `O=C(NC1CCC(F)(F)CC1)N1CCC(n2ncc3c(C4CC4)cccc32)CC1` [Example 161], the “α7PAM (%) @ 10 μmol/L” value was 567%. Still for that read-out and setting: then `CCc1ccc2c(c1)c(COC)nn2C1CCN(C(=O)NC2CCC(F)(F)CC2)CC1` [Example 157], with 366%; and `CCOc1cccc2c1cnn2C1CCN(C(=O)NC2CCC(F)(F)CC2)CC1` [Example 192], with 699%.

As for `CCOc1ccc2c(cnn2C2CCN(C(=O)N[C@H]3CC[C@H](OC)CC3)CC2)c1C` [Example 282], the “α7PAM (%) @ 10 μmol/L” value is on record as 215%. The same measure, in the same setting: the same measure for `[2H]C([2H])([2H])O[C@H]1CC[C@H](NC(=O)N2CCC(n3ncc4cc(C([2H])([2H])[2H])ccc43)CC2)CC1` [Example 308]: 1021%; for `O=C(C1CCC(F)(F)CC1)N1CCC(n2ncc3cc(F)ccc32)CC1` [Example 134]: 237%; for `[2H]C([2H])([2H])O[C@H]1CC[C@H](NC(=O)N2CCC(n3ncc4c(CC)cccc43)CC2)CC1` [Example 307]: 464%. Still for that read-out and setting: then `COC1CCC(NC(=O)N2CCC(n3ncc4c(Br)cccc43)CC2)CC1` (centres unmarked) [Example 98], with 89%; and `CCc1ccc2c(c1)c(OC)nn2C1CCN(C(=O)NC2CCCCC2)CC1` [Example 151], with 746%; and `[2H]C([2H])([2H])c1ccc2c(cnn2C2CCN(C(=O)NC3CCC(F)(F)CC3)CC2)c1` [Example 311], with 1393%. With `COc1ccc(C2(NC(=O)N3CCC(n4ncc5cc(C6CC6)ccc54)CC3)CC2)cc1` [Example 206], the “α7PAM (%) @ 10 μmol/L” value is reported as 196%.

For the compound `CCc1ccc2c(cnn2[C@H]2CC[C@@H](NC(=O)C3CCCC3)CC2)c1` [Example 123], the “α7PAM (%) @ 10 μmol/L” value is 1445%. The same measure, in the same setting: the same measure for `COc1ccc2c(c1)c(C1CC1)nn2C1CCN(C(=O)N[C@H]2CC[C@H](OC)CC2)CC1` [Example 257]: 801%; for `CCc1nn(C2CCN(C(=O)NC3CCC(F)(F)CC3)CC2)c2ccccc12` [Example 53]: 309%.

Regarding `O=C(NC1CCC(F)(F)CC1)N1CCC(n2ncc3cc(C4CC4)ccc32)CC1` [Example 77], the “α7PAM (%) @ 10 μmol/L” value came out at 1780%. For the compound `CCOc1ccc2c(cnn2C2CCN(C(=O)C3CCCCC3)CC2)c1` [Example 109], the “α7PAM (%) @ 10 μmol/L” value worked out at 267%. With `CCOC1CCC(NC(=O)N2CCC(n3ncc4c(C)cccc43)CC2)CC1` (centres unmarked) [Example 96], the “α7PAM (%) @ 10 μmol/L” value was determined as 143%. On to `COC(C)c1c(C)ccc2c1cnn2C1CCN(C(=O)NC2CCC(F)(F)CC2)CC1` (centres unmarked) [Example 232], for which the “α7PAM (%) @ 10 μmol/L” value is reported as 860%.

For the compound `O=C(NC1CCCCC1)N1CCC(n2ncc3ccccc32)CC1` [Example 39], the “α7PAM (%) @ 10 μmol/L” value was 1892%. Same read-out and setting: then `[2H]C([2H])([2H])Oc1ccc2c(cnn2C2CCN(C(=O)NC3CCC(F)(F)CC3)CC2)c1` [Example 319], with 1337%.

For `O=C(C1CCC(F)(F)CC1)N1CCC(n2ncc3ccccc32)CC1` [Example 137], the “α7PAM (%) @ 10 μmol/L” value came to 328%. Take `Cc1ccc2c(cnn2C2CCN(C(=O)NC3CCOC(C)(C)C3)CC2)c1` (centres unmarked) [Example 12]: the “α7PAM (%) @ 10 μmol/L” value is 231%.

Consider `COc1nn(C2CCN(C(=O)N[C@H]3CC[C@H](OC)CC3)CC2)c2ccc(C)cc12` [Example 147], for which the “α7PAM (%) @ 10 μmol/L” value is 181%. Same read-out and setting: the same measure for `CCOc1c(CC)ccc2c1cnn2C1CCN(C(=O)NC2CCOCC2)CC1` [Example 274]: 618%.

For `COC1CCC(NC(=O)N2CCC(n3ncc4cc(Cl)ccc43)CC2)CC1` (centres unmarked) [Example 35], the “α7PAM (%) @ 10 μmol/L” value was found to be 411%.

Consider `CCc1cccc2c1cnn2C1CCN(C(=O)N[C@H]2CC[C@H](OC(F)F)CC2)CC1` [Example 159], for which the “α7PAM (%) @ 10 μmol/L” value is 187%.

In the case of `COCc1c(C)ccc2c1cnn2C1CCN(C(=O)NC2CCC(F)(F)CC2)CC1` [Example 213], the “α7PAM (%) @ 10 μmol/L” value was found to be 800%.

In the case of `COc1ccc2c(c1)c(C1=CCOCC1)nn2C1CCN(C(=O)N[C@H]2CC[C@H](OC)CC2)CC1` [Example 260], the “α7PAM (%) @ 10 μmol/L” value is reported as 428%. On the same count and under the same terms, the same measure for `Cc1c(C2CC2)ccc2c1cnn2C1CCN(C(=O)NC2CCC(F)(F)CC2)CC1` [Example 276]: 1351%; for `CO[C@H]1CC[C@H](NC(=O)N2CCC(n3ncc4cc(-c5ccc(F)cc5)ccc43)CC2)CC1` [Example 155]: 210%; for `O=C(NC1CCC(F)(F)CC1)N1CCC(n2ncc3ccccc32)CC1` [Example 38]: 1101%.

Regarding `CC(C)c1ccc2c(cnn2C2CCN(C(=O)C3CCOCC3)CC2)c1` [Example 107], the “α7PAM (%) @ 10 μmol/L” value amounted to 159%. Still for that read-out and setting: the same measure for `COC(C)Cc1ccc2c(cnn2C2CCN(C(=O)NC3CCC(F)(F)CC3)CC2)c1` (centres unmarked) [Example 251]: 868%; for `O=C(NC1CCC(F)(F)CC1)N1CCC(n2ncc3cc(N4CCCC4)ccc32)CC1` [Example 224]: 286%; for `[2H]C([2H])([2H])O[C@H]1CC[C@H](NC(=O)N2CCC(n3ncc4cc(CC)ccc43)CC2)CC1` [Example 325]: 997%. The same measure, in the same setting: the same measure for `O=C(NC1CCC(F)(F)CC1)N1CCC(n2ncc3cc(-c4cccnc4)ccc32)CC1` [Example 196]: 229%.

The test is the same for the next values; noted with them: test compound 10 μmol/L; ACh added at EC20; ratio of RLU (Max-Min) of test wells to control wells; read-out: α7PAM (%) @ 10 μmol/L.
Take `COCc1nn(C2CCN(C(=O)NC3CCC(F)(F)CC3)CC2)c2ccc(C)cc12` [Example 36, N-(4,4-difluorocyclohexyl)-4-(3-(methoxymethyl)-5-methyl-1H-indazol-1-yl)piperidine-1-carboxamide]: the activity at 10 µM stood at 897%.

Take `O=C(NC1CCC1)N1CCC(n2ncc3cc(C(F)(F)F)ccc32)CC1` [Example 298, N-cyclobutyl-4-[5-(trifluoromethyl)-1H-indazol-1-yl]piperidine-1-carboxamide]: the activity at 10 µM was determined as 315%. On the same count and under the same terms, then `O=C(NC1CCCOC1)N1CCC(n2ncc3cc(OC(F)(F)F)ccc32)CC1` (centres unmarked) [Example 300, N-(tetrahydro-2H-pyran-3-yl)-4-[5-(trifluoromethoxy)-1H-indazol-1-yl]piperidine-1-carboxamide], with 376%; and `CC(C)Oc1ccc2c(cnn2C2CCN(C(=O)NC3CCC(F)(F)CC3)CC2)c1` [Example 46, N-(4,4-difluorocyclohexyl)-4-(5-isopropoxy-1H-indazol-1-yl)piperidine-1-carboxamide], with 544%; and `O=C(NC1CCC(F)(F)CC1)N1CCC(n2ncc3cc(-c4ccc(F)cc4)ccc32)CC1` [Example 70, N-(4,4-difluorocyclohexyl)-4-(5-(4-fluorophenyl)-1H-indazol-1-yl)piperidine-1-carboxamide], with 719%.

As to `Cc1ccc2c(cnn2C2CCN(C(=O)N[C@@H]3CCCCC3(F)F)CC2)c1` [Example 78, (R)—N-(2,2-difluorocyclohexyl)-4-(5-methyl-1H-indazol-1-yl)piperidine-1-carboxamide], the activity at 10 µM turned out to be 987%.

These data come from US8765786B2, “1-substituted indazole derivative” (Dainippon Sumitomo Pharma Co., Ltd., priority 2012, dated 2014).
